Assay results from US7666868B2, “N-sulphonylpyrroles and their use as histone deacetylase inhibitors” (4SC AG, priority 2005, dated 2010).

The molecules below were run on HeLa cervical carcinoma cell line (assay: Cellular cytotoxicity assay (Alamar Blue / Resazurin)). Details: Homo sapiens; HeLa cells, 48 hours incubation; read-out: IC50 (anti-proliferative/cytotoxic potency).
Assay type: cell-based
Protocol: The anti-proliferative activity of the histone deacetylase inhibitory compounds as described herein, is evaluated with the HeLa cervical carcinoma cell line (ATCC CCL2) using the Alamar Blue (Resazurin) cell viability assay (O'Brien et al. Eur J Biochem 267, 5421-5426, 2000). Resazurin is reduced to the fluorescent resorufin by cellular dehydrogenase activity, correlating with viable, proliferating cells. Test compounds are dissolved as 10 mM solutions in dimethylsulfoxide (DMSO) and subsequently diluted in semi-logarithmic steps. HeLa cells are seeded into 96 well flat bottom plates at a density of 3000 cells per well in a volume of 200 μl per well. 24 hours after seeding 1 μl each of the compound dilutions are added into each well of the 96 Well plate. Each compound dilution is tested as quadruplicates. Wells containing untreated control cells are filled with 200 μl DMEM medium containing 0.5% v:v DMSO. The cells are then incubated with the substances for 48 hours at 37° C. in a humidified atmosphere containing 5% carbon dioxide. To determine the viability of the cells, 20 μl of an Resazurin solution (Sigma; 90 mg/l) are added. After 4 hours incubation at 37° C. the fluorescence is measured at an extinction of 544 nm and an emission of 590 nm. For the calculation of the cell viability the emission value from untreated cells is set as 100% viability and the emission rates of treated cells are set in relation to the values of untreated cells. Viabilites are expressed as % values. The corresponding IC50 values of the compounds for cytotoxic activity are determined from the concentration-effect curves by means of non-linear regression.
`CN1CCN(c2cc(-c3ccc(S(=O)(=O)n4ccc(/C=C/C(=O)Nc5ccccc5N)c4)s3)ccn2)CC1` [Compound 106, (E)-N-(2-Amino-phenyl)-3-(1-{5-[2-(4-methyl-piperazin-1-yl)-pyridin-4-yl]-thiophene-2-sulfonyl}-1H-pyrrol-3-yl)-acrylamide] was tested, and the IC50 was 0.014 to 6.7 µM. In the case of `O=C(/C=C/c1ccn(S(=O)(=O)c2ccc(-c3ccc(CNC4CCCC4)cc3)cc2)c1)NO` [Compound 84, (E)-3-[1-(4′-Cyclopentylaminomethyl-biphenyl-4-sulfonyl)-1H-pyrrol-3-yl]-N-hydroxy-acrylamide], the IC50 is reported as 0.014 to 6.7 µM. In the case of `O=C(/C=C/c1ccn(S(=O)(=O)c2ccc(-c3ccc(OCCN4CCCC4)cc3)nc2)c1)NO` [Compound 92, (E)-N-Hydroxy-3-(1-{6-[4-(2-pyrrolidin-1-yl-ethoxy)-phenyl]-pyridine-3-sulfonyl}-1H-pyrrol-3-yl)-acrylamide], the IC50 is reported as 0.014 to 6.7 µM. `CN1CCN(CCCOc2cccc(-c3ccc(S(=O)(=O)n4ccc(/C=C/C(=O)NO)c4)cc3)c2)CC1` [Compound 73, (E)-N-Hydroxy-3-(1-{3′-[3-(4-methyl-piperazin-1-yl)-propoxy]-biphenyl-4-sulfonyl}-1H-pyrrol-3-yl)-acrylamide] was tested, and the IC50 was 0.014 to 6.7 µM. In the case of `NCc1cccc(-c2ccc(S(=O)(=O)n3ccc(/C=C/C(=O)NO)c3)s2)c1` [Compound 94, (E)-3-{1-[5-(3-Aminomethyl-phenyl)-thiophene-2-sulfonyl]-1H-pyrrol-3-yl}-N-hydroxy-acrylamide], the IC50 is reported as 0.014 to 6.7 µM. With `CN1CCN(CCOc2ccc(-c3ccc(S(=O)(=O)n4ccc(/C=C/C(=O)NO)c4)cc3)cc2)CC1` [Compound 76, (E)-N-Hydroxy-3-(1-{4′-[2-(4-methyl-piperazin-1-yl)-ethoxy]-biphenyl-4-sulfonyl}-1H-pyrrol-3-yl)-acrylamide] the IC50 was 0.014 to 6.7 µM. `O=C(/C=C/c1ccn(S(=O)(=O)c2ccc(-c3cccc(OCCN4CCCC4)c3)cc2)c1)NO` [Compound 80, (E)-N-Hydroxy-3-{1-[3′-(2-pyrrolidin-1-yl-ethoxy)-biphenyl-4-sulfonyl]-1H-pyrrol-3-yl}-acrylamide] was tested, and the IC50 was 0.014 to 6.7 µM. In the case of `CN(C)Cc1ccc(-c2cccc(S(=O)(=O)n3ccc(/C=C/C(=O)Nc4ccccc4N)c3)c2)cc1` [Compound 102, (E)-N-(2-Amino-phenyl)-3-[1-(4′-dimethylaminomethyl-biphenyl-3-sulfonyl)-1H-pyrrol-3-yl]-acrylamide], the IC50 is reported as 0.014 to 6.7 µM. `O=C(/C=C/c1ccn(S(=O)(=O)c2ccc(-c3cccc(C(F)(F)F)c3)cc2)c1)NO` [Compound 85, (E)-N-Hydroxy-3-[1-(3′-trifluoromethyl-biphenyl-4-sulfonyl)-1H-pyrrol-3-yl]acrylamide] was tested, and the IC50 was 0.014 to 6.7 µM. In the case of `O=C(/C=C/c1ccn(S(=O)(=O)c2ccc(-c3cccc(OCCCN4CCOCC4)c3)cc2)c1)NO` [Compound 74, (E)-N-Hydroxy-3-{1-[3′-(3-morpholin-4-yl-propoxy)-biphenyl-4-sulfonyl]-1H-pyrrol-3-yl}-acrylamide], the IC50 is reported as 0.014 to 6.7 µM. `O=C(/C=C/c1ccn(S(=O)(=O)c2ccc(-c3cn(CCN4CCOCC4)nn3)cc2)c1)NO` [Compound 83, (E)-N-Hydroxy-3-(1-{4-[1-(2-morpholin-4-yl-ethyl)-1H-[1,2,3]triazol-4-yl]-benzenesulfonyl}-1H-pyrrol-3-yl)-acrylamide] gave an IC50 of 0.014 to 6.7 µM. `CN(C)Cc1ccc(-c2ccc(S(=O)(=O)n3ccc(/C=C/C(=O)Nc4ccccc4N)c3)s2)cc1` [Compound 95, (E)-N-(2-Amino-phenyl)-3-{1-[5-(4-dimethylaminomethyl-phenyl)-thiophene-2-sulfonyl]-1H-pyrrol-3-yl}-acrylamide] gave an IC50 of 0.014 to 6.7 µM. In the case of `O=C(/C=C/c1ccn(S(=O)(=O)c2ccc(-c3cccc(CN4CCOCC4)c3)cc2)c1)NO` [Compound 64, (E)-N-Hydroxy-3-[1-(3′-morpholin-4-ylmethyl-biphenyl-4-sulfonyl)-1H-pyrrol-3-yl]-acrylamide], the IC50 is reported as 0.014 to 6.7 µM. Work on `O=C(/C=C/c1ccn(S(=O)(=O)c2ccc(-c3cccc(OCCCN4CCCC4)c3)cc2)c1)NO` [Compound 72, (E)-N-Hydroxy-3-{1-[3′-(3-pyrrolidin-1-yl-propoxy)-biphenyl-4-sulfonyl]-1H-pyrrol-3-yl}-acrylamide] yielded an IC50 of 0.014 to 6.7 µM. Molecule `O=C(/C=C/c1ccn(S(=O)(=O)c2ccc(-c3ccc(OCCCN4CCCC4)cc3)cc2)c1)NO` [Compound 81, (E)-N-Hydroxy-3-{1-[4′-(3-pyrrolidin-1-yl-propoxy)-biphenyl-4-sulfonyl]-1H-pyrrol-3-yl}-acrylamide] has an IC50 of 0.014 to 6.7 µM. `Nc1ccccc1NC(=O)/C=C/c1ccn(S(=O)(=O)c2ccc(-c3ccc(OCCN4CCCC4)cc3)cc2)c1` [Compound 108, (E)-N-(2-Amino-phenyl)-3-{1-[4′-(2-pyrrolidin-1-yl-ethoxy)-biphenyl 4-sulfonyl]-1H-pyrrol-3-yl}-acrylamide] was tested, and the IC50 was 0.014 to 6.7 µM. `CN1CCN(c2cc(-c3ccc(S(=O)(=O)n4ccc(/C=C/C(=O)NO)c4)cn3)ccn2)CC1` [Compound 103, (E)-N-Hydroxy-3-{1-[2′-(4-methyl-piperazin-1-yl)-[2,4′]bipyridinyl-5-sulfonyl]-1H-pyrrol-3-yl}-acrylamide] gave an IC50 of 0.014 to 6.7 µM. `Cc1nc(-c2ccc(S(=O)(=O)n3ccc(/C=C/C(=O)NO)c3)s2)cs1` [Compound 90, (E)-N-Hydroxy-3-{1-[5-(2-methyl-thiazol-4-yl)-thiophene-2-sulfonyl]-1H-pyrrol-3-yl}-acrylamide] was tested, and the IC50 was 0.014 to 6.7 µM. `O=C(C=Cc1ccn(S(=O)(=O)c2ccc(-c3ccc(OCCN4CCCC4)cc3)s2)c1)NO` [Compound 99, (E)-N-Hydroxy-3-(1-{5-([4-(2-pyrrolidin-1-yl-ethoxy)-phenyl]-thiophene-2-sulfonyl}-1H-pyrrol-3-yl)-acrylamide] showed an IC50 of 0.014 to 6.7 µM. Work on `COc1ccc(-c2ccc(S(=O)(=O)n3ccc(/C=C/C(=O)NO)c3)cc2)cc1` [Compound 82, (E)-N-Hydroxy-3-[1-(4′-methoxy-biphenyl-4-sulfonyl)-1H-pyrrol-3-yl]-acrylamide] yielded an IC50 of 0.014 to 6.7 µM. `O=C(/C=C/c1ccn(S(=O)(=O)c2ccc(-c3ccc4c(c3)OCO4)cc2)c1)NO` [Compound 65, (E)-3-[1-(4-Benzo[1,3]dioxol-5-yl-benzenesulfonyl)-1H-pyrrol-3-yl]-N-hydroxy-acrylamide] gave an IC50 of 0.014 to 6.7 µM. In the case of `Cn1cc(-c2ccc(S(=O)(=O)n3ccc(/C=C/C(=O)Nc4ccccc4N)c3)s2)cn1` [Compound 104, (E)-N-(2-Amino-phenyl)-3-{1-[5-(1-methyl-1H-pyrazol-4-yl)-thiophene-2-sulfonyl]-1H-pyrrol-3-yl}-acrylamide], the IC50 is reported as 0.014 to 6.7 µM. `CN(C)Cc1ccc(-c2ccc(S(=O)(=O)n3ccc(/C=C/C(=O)Nc4ccccc4N)c3)cn2)cc1` [Compound 89, (E)-N-(2-Amino-phenyl)-3-{1-[6-(4-dimethylaminomethyl-phenyl)-pyridine-3-sulfonyl]-1H-pyrrol-3-yl}-acrylamide] was tested, and the IC50 was 0.014 to 6.7 µM. With `CS(=O)(=O)NCc1ccc(-c2ccc(S(=O)(=O)n3ccc(/C=C/C(=O)Nc4ccccc4N)c3)cc2)cc1` [Compound 98, (E)-N-(2-Amino-phenyl)-3-{1-[4′-(methanesulfonylamino-methyl)biphenyl-4-sulfonyl]-1H-pyrrol-3-yl}-acrylamide] the IC50 was 0.014 to 6.7 µM. With `O=C(/C=C/c1ccn(S(=O)(=O)c2ccc(-c3ccc(OCCCN4CCOCC4)cc3)cc2)c1)NO` [Compound 78, (E)-N-Hydroxy-3-{1-[4′-(3-morpholin-4-yl-propoxy)-biphenyl-4-sulfonyl]-1H-pyrrol-3-yl}-acrylamide] the IC50 was 0.014 to 6.7 µM. Work on `CN1CCN(CCCOc2ccc(-c3ccc(S(=O)(=O)n4ccc(/C=C/C(=O)NO)c4)cc3)cc2)CC1` [Compound 79, (E)-N-Hydroxy-3-(1-{4′-[3-(4-methyl-piperazin-1-yl)-propoxy]-biphenyl-4-sulfonyl}-1H-pyrrol-3-yl)-acrylamide] yielded an IC50 of 0.014 to 6.7 µM. Molecule `CS(=O)(=O)Nc1ccc(-c2cccc(S(=O)(=O)n3ccc(/C=C/C(=O)Nc4ccccc4N)c3)c2)cc1` [Compound 101, (E)-N-(2-Amino-phenyl)-3-[1-(4′-methanesulfonylamino-biphenyl-3-sulfonyl)-1H-pyrrol-3-yl]-acrylamide] has an IC50 of 0.014 to 6.7 µM. Molecule `CN(C)Cc1cccc(-c2ccc(S(=O)(=O)n3ccc(/C=C/C(=O)Nc4ccccc4N)c3)cc2)c1` [Compound 96, (E)-N-(2-Amino-phenyl)-3-[1-(3′-dimethylaminomethyl-biphenyl-4-sulfonyl)-1H-pyrrol-3-yl]-acrylamide] has an IC50 of 0.014 to 6.7 µM. Molecule `CN1CCC(CCOc2ccc(-c3ccc(S(=O)(=O)n4ccc(C=CC(=O)NO)c4)cc3)cc2)CC1` [Compound 68, (E)-N-Hydroxy-3-(1,4′-[2-(1-methyl-piperidin-4-yl)-ethoxy]biphenyl-4-sulfonyl)-1H-pyrrol-3-yl)-acrylamide] has an IC50 of 0.014 to 6.7 µM. `CN(C)Cc1ccc(-c2ccc(S(=O)(=O)n3ccc(/C=C/C(=O)NO)c3)cn2)cc1` [Compound 105, (E)-3-{1-[6-(4-Dimethylaminomethyl-phenyl)-pyridine-3-sulfonyl]-1H-pyrrol-4-yl}-N-hydroxy-acrylamide] was tested, and the IC50 was 0.014 to 6.7 µM. `CC(=O)NCc1ccc(-c2ccc(S(=O)(=O)n3ccc(/C=C/C(=O)Nc4ccccc4N)c3)cc2)cc1` [Compound 97, (E)-3-{1-[4′-(Acetylamino-methyl)-biphenyl-4-sulfonyl]-1H-pyrrol-3-yl}-N-(2-amino-phenyl)-acrylamide] showed an IC50 of 0.014 to 6.7 µM.
